Reference: patent publication US10544130B2, “Metallo-beta-lactamase inhibitors” (priority 2015, dated 2020)
Converted amounts (≈) assume the structure as drawn. Like-named read-outs stand apart in the source and are kept apart here.

Columns and labels:
IMP-1 = IMP-1 (Serratia marcescens, UniProt P52699); type: biochemical; settings: CCF2-FA substrate, 2 hours at 25° C.
Description: (§1) Enzyme Activity: Determination of IC50
(§2) The Class B enzyme activities were measured in the presence of the test inhibitor in a fluorescence assay against a commercially available substrate consisting of a cephalosporin core linking 7-hydroxycoumarin to fluorescein (CCF2-FA). […] In a 384-well microplate, the test inhibitor was incubated with the metallo-β-lactamase enzyme and the substrate for 2 hours at 25° C. […] The IC50 value was determined from semi-logarithmic plots of enzyme inhibition versus inhibitor concentration, with a curve generated using a 4-parameter fit.

NDM-1 = NDM-1 (Klebsiella pneumoniae, UniProt C7C422); type: biochemical; settings: CCF2-FA substrate, 2 hours at 25° C.
NDM-1, sequence (C7C422 whole entry, looked up, species assumed): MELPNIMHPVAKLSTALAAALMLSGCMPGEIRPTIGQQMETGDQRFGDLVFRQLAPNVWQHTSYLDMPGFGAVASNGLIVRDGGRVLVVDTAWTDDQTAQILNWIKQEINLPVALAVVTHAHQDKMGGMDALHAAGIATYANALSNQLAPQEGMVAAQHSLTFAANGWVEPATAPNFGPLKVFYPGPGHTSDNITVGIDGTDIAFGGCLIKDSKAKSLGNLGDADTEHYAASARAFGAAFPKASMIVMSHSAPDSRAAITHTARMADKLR
Description: as §1, §2

[1] = test system: Pseudomonas aeruginosa PAO1 MB9798 (efflux+, IMP-1); settings: for P. aeruginosa expressing IMP-1, efflux + (MB9798) MITC95: restores susceptibility to imipenem at 2 μg/mL in the presence of a class A; for Efflux ratio: ratio MITC95 PA 9798/MITC95 PA 9799
Procedure, shortened: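 Isogenic PAO1 pair (efflux+ MB9798, efflux− MB9799, both IMP-1) tested by microbroth MIC with fixed imipenem and/or ceftazidime, usually at CLSI breakpoint, plus fixed class A/C inhibitor against AmpC. MBL inhibitor titrated; concentration restoring susceptibility recorded and fold difference between strains taken as efflux extent.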

[2] = test system: Pseudomonas aeruginosa PAO1 MB9799 (efflux-, IMP-1); type: cell-based; settings: C, D serine β-lactamase inhibitor closely related to relebactam; for P. aeruginosa expressing IMP-1, efflux − (MB9799) MITC95: restores susceptibility to imipenem at 2 μg/mL in the presence of a class A, efflux − strain MB9799
Text: The strain background was Pseudomonas aeruginosa PAO1.
The strain set was then used as a pair to determine the effect of metallo-β-lactamase inhibitors of Formula I on the MIC of imipenem and/or ceftazidime. A fixed concentration of antibiotic was included in standard microbroth MIC tests, usually at the CLSI (Clinical and Laboratory Standards Institute) breakpoint concentration. A fixed amount of a class A/C beta-lactamase inhibitor was also included to inhibit the resident Pseudomonas AmpC enzyme. A serial titration of the metallo-β-lactamase inhibitor was included and the concentration of metallo-β-lactamase inhibitor which restores susceptibility of the strain to the included antibiotic was recorded. That concentration of metallo-β-lactamase inhibitor was then compared between the two strains to determine the fold difference between the efflux + (MB9798) and efflux − (MB9799) strains. This was taken as an indication of the extent to which the MBLi is subject to efflux.

[3] = test system: Klebsiella pneumoniae expressing VIM-1 (IHMA599644); type: cell-based; settings: with imipenem 1 μg/ml; 95% inhibition of bacterial growth
Procedure, shortened: (§3)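 Clinical strains were grown overnight at 35 °C on blood agar, adjusted to set OD600 in saline and diluted 1:100 into 1.1× CAMHB. Inhibitor was tested with and without imipenem at 1 μg/ml. After 22–24 h at 35 °C, absorbance was read to give synergistic concentration.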

VIM-1 = VIM-1 (Pseudomonas aeruginosa (strain ATCC 15692 / DSM 22644 / CIP 104116 / JCM 14847 / LMG 12228 / 1C / PRS 101 / PAO1), UniProt A0A0F7KYQ8); type: biochemical; settings: CCF2-FA substrate, 2 hours at 25° C.
Description: as §1, §2

[4] = test system: Escherichia coli expressing NDM-1 (CLB30005, CLB30016); type: cell-based; settings: with imipenem 1 μg/ml; 95% inhibition of bacterial growth
Procedure, shortened: as §3

[5] = test system: Serratia marcescens expressing IMP-1 (CL5741); type: cell-based; settings: with imipenem 1 μg/ml; 95% inhibition of bacterial growth
Procedure, shortened: as §3

[6] = test system: Pseudomonas aeruginosa MB 5919; assay: Minimum inhibitory concentrations of sentinel antibiotics (strain quality control); type: cell-based; settings: OprD+, efflux+, parental strain
[7] = test system: Pseudomonas aeruginosa MB 5890; assay: as above; type: cell-based; settings: OprD+, efflux−, parental strain
[8] = test system: MB 5919 Trans IMP1 plasmid (MB 9798); type: cell-based, Pseudomonas aeruginosa; settings: OprD+, efflux+
[9] = test system: MB 5890 Trans IMP1 plasmid (MB 9799); type: cell-based, Pseudomonas aeruginosa; settings: OprD+, efflux−
[10] = test system: MB 5919 Trans pFlp-Vim1 plasmid (MB 9861); type: cell-based, Pseudomonas aeruginosa; settings: OprD+, efflux+
[11] = test system: MB 5890 Trans pFlp-Vim1 (MB9862); type: cell-based, Pseudomonas aeruginosa; settings: OprD+, efflux−
[12] = test system: MB 5919 Trans pFlp-Vim2 plasmid; type: cell-based, Pseudomonas aeruginosa; settings: OprD+, efflux+
[13] = test system: MB 5890 Trans pFlp-Vim2 plasmid; type: cell-based, Pseudomonas aeruginosa; settings: OprD+, efflux−
[14] = C, D serine β-lactamase inhibitor closely related to relebactam, efflux + strain MB9798

IMP-1, sequence (P52699 whole entry, looked up, species assumed): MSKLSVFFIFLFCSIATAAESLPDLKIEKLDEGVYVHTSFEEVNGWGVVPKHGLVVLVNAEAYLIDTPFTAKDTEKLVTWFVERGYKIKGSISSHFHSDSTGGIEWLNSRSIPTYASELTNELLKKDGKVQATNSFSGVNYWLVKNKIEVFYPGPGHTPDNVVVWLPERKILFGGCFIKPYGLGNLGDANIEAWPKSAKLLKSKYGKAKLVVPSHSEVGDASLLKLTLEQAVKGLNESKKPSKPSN

Row | Molecule | Klebsiella pneumoniae (VIM-1) MITC95 [3] [µM] | Escherichia coli (NDM-1) MITC95 [4] [µM] | Serratia marcescens (IMP-1) MITC95 [5] [µM] | Efflux ratio ([1]; imipenem at 2 μg/mL) | MIC [6] [µg/mL] | MIC [7] [µg/mL] | also measured
1 | NC[C@H](O)CNS(=O)(=O)c1ccc(-c2ccnc(N)c2)c(-c2nn[nH]n2)c1S(N)(=O)=O [Example 417, (S)-N^1-(3-amino-2-hydroxypropyl)-4-(2-aminopyridin-4-yl)-3-(2H-tetrazol-5-yl)benzene-1,2-disulfonamide] | – | – | – | – | – | – | IC50 (IMP-1): 1280 pM; IC50 (NDM-1): 385 pM; Concentration of metallo-β-lactamase inhibitor which restores susceptibility of efflux + (MB9798) strain to imipenem ([1]; imipenem at 2 μg/mL, in the presence of a class A, C, D serine β-lactamase inhibitor closely related to relebactam, efflux + strain MB9798): 1.563; Concentration of metallo-β-lactamase inhibitor which restores susceptibility of efflux − (MB9799) strain to imipenem ([2]; imipenem at 2 μg/mL, in the presence of a class A): 0.7813
2 | C[N+]1(CCN)CC[C@@H](NS(=O)(=O)c2ccc(-c3cccc4[nH]c(N)nc34)c(-c3nn[nH]n3)c2S(N)(=O)=O)C1 (stereo partly drawn) [Example 248, (3R)-3-{[4-(2-amino-1H-1,3-benzodiazol-4-yl)-2-sulfamoyl-3-(2H-1,2,3,4-tetrazol-5-yl)benzene]sulfonamido}-1-(2-aminoethyl)-1-methylpyrrolidin-1-ium; methaneperoxoate] | 0.7813 | – | – | – | – | – | P. aeruginosa expressing IMP-1, efflux + (MB9798) MITC95 [1, 14]: 0.7813 µM; P. aeruginosa expressing IMP-1, efflux − (MB9799) MITC95 [2]: 0.7813 µM
3 | (R)-4-(1-(2-aminoethyl)-1H-benzo[d][1,2,3]triazol-4-yl)-N1-(pyrrolidin-3-yl)-3-(2H-tetrazol-5-yl)benzene-1,2-disulfonamide yl)benzene-1,2-disulfonamide [Example 289] | 1.563 | 0.7813 | 1.563 | 2.00 | – | – | IC50 (IMP-1): 1220 pM; IC50 (NDM-1): 249 pM; IC50 (VIM-1): 104 pM; P. aeruginosa expressing IMP-1, efflux + (MB9798) MITC95 [1, 14]: 1.563 µM; P. aeruginosa expressing IMP-1, efflux − (MB9799) MITC95 [2]: 0.7813 µM
4 | Nc1nc2c(-c3ccc(S(=O)(=O)N4CCN(CCO)CC4)c(S(N)(=O)=O)c3-c3nnn[nH]3)cccc2s1.O=C(O)C(F)(F)F [Example 92, 4-((4-(2-aminobenzo[d]thiazol-4-yl)-2-sulfamoyl-3-(1H-tetrazol-5-yl)phenyl)sulfonyl)-1-(2-hydroxyethyl) piperazin-1-ium 2,2,2-trifluoroacetate] | – | – | – | 4.00 | – | – | IC50 (IMP-1; fluorescence assay): 1170 pM; IC50 (NDM-1; fluorescence assay): 609 pM; IC50 (VIM-1; fluorescence assay): 1410 pM; Escherichia coli expressing NDM-1 (CLB30016) MITC95 [4]: 12.5 µM; P. aeruginosa expressing IMP-1, efflux + (MB9798) MITC95 [1, 14]: 25 µM; P. aeruginosa expressing IMP-1, efflux − (MB9799) MITC95 [2]: 6.25 µM
5 | C[C@@H](O)[C@H]1C(=O)N2C(C(=O)O)=C(S[C@@H]3CN[C@H](C(=O)N(C)C)C3)[C@H](C)[C@H]12 [Meropenem, meropenem] | – | – | – | – | 2 (≈ 5.22 µM) | 0.5 (≈ 1.3 µM) | MIC [8]: >64 µg/mL; MIC [9]: 64 µg/mL (≈ 167 µM); MIC [10]: >64 µg/mL; MIC [11]: 64 µg/mL (≈ 167 µM); MIC [12]: >64 µg/mL; MIC [13]: 32 µg/mL (≈ 83.4 µM)
6 | CC(C)(O/N=C(\C(=O)N[C@@H]1C(=O)N2C(C(=O)[O-])=C(C[n+]3ccccc3)CS[C@H]12)c1csc(N)n1)C(=O)O [CAZ, ceftazidime] | – | – | – | – | 1 (≈ 1.83 µM) | 0.5 (≈ 0.915 µM) | MIC [13]: 64 µg/mL (≈ 117 µM)
7 | C[C@@H](O)[C@H]1C(=O)N2C(C(=O)O)=C(SCCN=CN)C[C@H]12 [Imipenem, imipenem] | – | – | – | – | 4 (≈ 13.4 µM) | 2 (≈ 6.68 µM) | MIC [8]: 64 µg/mL (≈ 214 µM); MIC [9]: 32 µg/mL (≈ 107 µM); MIC [10]: >64 µg/mL; MIC [11]: 64 µg/mL (≈ 214 µM); MIC [12]: >64 µg/mL; MIC [13]: 32 µg/mL (≈ 107 µM)
8 | CCN1CCN(C(=O)N[C@@H](C(=O)N[C@@H]2C(=O)N3[C@@H]2SC(C)(C)[C@@H]3C(=O)O)c2ccccc2)C(=O)C1=O [Pipercillin, piperacillin] | – | – | – | – | 2 (≈ 3.86 µM) | 1 (≈ 1.93 µM) | MIC [8]: 4 µg/mL (≈ 7.73 µM); MIC [9]: 4 µg/mL (≈ 7.73 µM)
9 | NCCn1nc2cccc(-c3ccc(S(=O)(=O)N[C@@H]4CCNC4)c(S(N)(=O)=O)c3-c3nn[nH]n3)c2n1 [Example 279, (R)-4-(2-(2-aminoethyl)-2H-benzo[d][1,2,3]triazol-4-yl)-N1-(pyrrolidin-3-yl)-3-(2H-tetrazol-5-yl)benzene-1,2-disulfonamide] | 0.7813 | 0.7813 | 0.7813 | 1.00 | – | – | –
10 | NCCNS(=O)(=O)c1ccc(-c2cccc3[nH]c([C@@H](N)CN)nc23)c(-c2nn[nH]n2)c1S(N)(=O)=O [Example 336, (S)—N1-(2-aminoethyl)-4-(2-(1,2-diaminoethyl)-1H-benzo[d]imidazol-4-yl)-3-(2H-tetrazol-5-yl)benzene-1,2-disulfonamide] | 3.125 | 1.563 | 3.125 | 2.00 | – | – | –
11 | NC[C@H](CO)NS(=O)(=O)c1ccc(-c2ccnc(N)c2)c(-c2nn[nH]n2)c1S(N)(=O)=O [Example 362, (R)—N1-(1-amino-3-hydroxypropan-2-yl)-4-(2-aminopyridin-4-yl)-3-(2H-tetrazol-5-yl)benzene-1,2-disulfonamide] | 3.125 | 1.563 | 1.563 | 2.00 | – | – | –
12 | NCCNS(=O)(=O)c1ccc(-c2cccc(SC[C@@H](O)CN)c2)c(-c2nn[nH]n2)c1S(N)(=O)=O [Example 357, (S)-5′-(3-amino-2-hydroxypropylthio)-N4-(2-aminoethyl)-2-(2H-tetrazol-5-yl)biphenyl-3,4-disulfonamide] | 0.7813 | 0.7813 | 0.7813 | 2.00 | – | – | –
13 | NCCN1CC[C@@H](NS(=O)(=O)c2ccc(-c3cccc4[nH]c(N)nc34)c(-c3nn[nH]n3)c2S(N)(=O)=O)C1 [Example 246, (R)-4-(2-amino-1H-benzo[d]imidazol-4-yl)-N1-(1-(2-aminoethyl)pyrrolidin-3-yl)-3-(2H-tetrazol-5-yl)benzene-1,2-disulfonamide] | 1.563 | 0.7813 | 1.563 | 2.00 | – | – | –
